Structures are written as SMILES. Where two headings read alike, the source gives them in different places.

The test system of the assay is progressive prostatic cancer in stage 4 with confirmed bone metastasis.

`[HH]` [hydrogen gas, hydrogen]: the PSA value is 12.74 ng/mL (about 1 month after suction started, hydrogen 6.6% by volume, 60 to 90 minutes/day, with bicalutamide, Flivas OD, initial 92.5); 7.53 ng/mL (about 2 months after suction started, with internal medicines, before the anticancer agent infusion); 1.69 ng/mL (about 12.5 months after suction started, with internal medicines, docetaxel infusions and hormone injections). For the setting “about 12 months after suction started, visually inspected, combined therapy”, the “shade densities at the parts of bone metastasis, whole body scintigraphy” value is given as “a half or less”.
